{"source": "patent US20210047398A1", "about": "“ASPROSIN, A FAST-INDUCED GLUCOGENIC PROTEIN HORMONE” (Baylor College of Medicine, priority 2016, published 2021)", "key": {"AgRP neurons": {"tested_on": "AgRP neurons", "experiment": "Whole-cell patch clamp recordings on AgRP neurons", "assay_type": "cell-based, mice", "settings": "for effect of pre-treating on asprosin-mediated AgRP neuron activation (firing frequency and resting membrane potential): 100 μM NKY80, 50 μM suramin, 20 μM NF449, 50 μM PTX, 1 μM PKI, 100 μM [D-Lys3]-GHRP-6", "method": "Electrophysiology—Whole-cell patch clamp recordings were performed on identified AgRP neurons or POMC neurons in the brain slices containing the arcuate nucleus of the hypothalamus (ARH). In particular, to identify AgRP neurons, the inventors crossed Rosa26-tdTOMATO allele onto the regular AgRP-Cre mice (Tong et al., 2008) to generate AgRP-Cre/Rosa26-tdTOMATO mice, which express TOMATO selectively in AgRP/NPY neurons. In some studies, the inventors crossed NPY-GFP mice (Pinto et al., 2004) with NPS mice to generate NPY-GFP mice with or without the NPS mutation, and GFP-labelled neurons in the arcuate nucleus were recorded. In order to record POMC neurons, the inventors crossed Rosa26-tdTOMATO allele onto the POMC-CreERT2 mice (Berglund et al., 2013) to generate POMC-CreERT2/Rosa26-tdTOMATO mice, which express TOMATO selectively in mature POMC neurons upon tamoxifen induction (0.2 mg/g, i.p. 6 weeks of age). In some studies, the inventors also crossed the AgRP-DTR allele onto POMC-GFP mice, and these mice received DT or saline injections (described above) to generate mice with or without AgRP neurons ablated.\nSix to twelve-week old mice were deeply anesthetized with isoflurane and transcardially perfused with a modified ice-cold sucrose-based cutting solution (pH 7.3) containing 10 mM NaCl, 25 mM NaHCO3, 195 mM Sucrose, 5 mM Glucose, 2.5 mM KCl, 1.25 mM NaH2PO4, 2 mM Na-Pyruvate, 0.5 mM CaCl2, and 7 mM MgCl2, bubbled continuously with 95% O2 and 5% CO2 (Ren et al., 2012). The mice were then decapitated, and the entire brain was removed and immediately submerged in the cutting solution. Slices (250 μm) were cut with a Microm HM 650V vibratome (Thermo Scientific). Three brain slices containing the arcuate nucleus were obtained for each animal (Bregma −2.06 mm to −1.46 mm; Interaural 1.74 mm to 2.34 mm), and recordings were made at levels throughout this brain region. The slices were recovered for 1 h at 34° C. and then maintained at room temperature in artificial cerebrospinal fluid (aCSF, pH 7.3) containing 126 mM NaCl, 2.5 mM KCl, 2.4 mM CaCl2, 1.2 mM NaH2PO4, 1.2 mM MgCl2, 11.1 mM glucose, and 21.4 mM NaHCO3) saturated with 95% O2 and 5% CO2 before recording.\nSlices were transferred to a recording chamber and allowed to equilibrate for at least 10 min before recording. The slices were superfused at 34° C. in oxygenated aCSF at a flow rate of 1.8-2 ml/min. GFP or TOMATO-labeled neurons in the ARH were visualized using epifluorescence and IR-DIC imaging on an upright microscope (Eclipse FN-1, Nikon) equipped with a moveable stage (MP-285, Sutter Instrument). Patch pipettes with resistances of 3-5 MΩ were filled with intracellular solution (pH 7.3) containing 128 mM K-Gluconate, 10 mM KCl, 10 mM HEPES, 0.1 mM EGTA, 2 mM MgCl2, 0.05 mM Na-GTP and 0.05 mM Mg-ATP. Recordings were made using a MultiClamp 700B amplifier (Axon Instrument), sampled using Digidata 1440A and analyzed offline with pClamp 10.3 software (Axon Instruments). Series resistance was monitored during the recording, and the values were generally <10 MΩ and were not compensated. The liquid junction potential was +12.5 mV, and was corrected after the experiment. Data were excluded if the series resistance increased dramatically during the experiment or without overshoot for action potential. Currents were amplified, filtered at 1 kHz, and digitized at 20 kHz. Current clamp was engaged to test neural firing frequency and resting membrane potential (RM) at the baseline and puff delivered recombinant Asprosin (500 ms at various concentrations indicated in the figures). For the asprosin antibody pre-incubation experiment, asprosin and anti-asprosin mAB or IgG were gently mixed at a 1:100 ratio, and then kept on ice for one hour before recording. After AgRP or POMC neuron response to asprosin alone was confirmed, the mixture of recombinant asprosin and anti-asprosin mAB or IgG was perfused to treat the AgRP or POMC neurons for 4 minutes. […]"}, "[1]": {"tested_on": "mouse primary hepatocytes", "method": "Cell Culture. Primary mouse hepatocytes were isolated from 8- to 12-week-old WT mice using standard methodology. […] The cells were treated with 50 nM recombinant asprosin or GFP for 10 minutes for cAMP and PKA assays and for 2 hours for the in vitro glucose production assay. Cells were pretreated with various inhibitors for 1 hour prior to treatment with asprosin, GFP, Glucagon or Epinephrine. cAMP was measured from cell lysates using the cAMP direct immunoassay kit from Cell Biolabs. PKA activity was measured from cell lysates using the PKA kinase activity kit from Enzo Lifesciences, Inc. Media glucose content was measured using the Glucose Colorimetric Assay Kit from Biovision. Results were normalized to protein content."}, "[2]": {"experiment": "SPECT scans and gamma counting after intravenous I125-asprosin", "assay_type": "in vivo, mice", "settings": "15 minutes after intravenous injection of 150 μCi", "method": "FIGS. 22A-22E: Asprosin traffics to the liver in vivo and binds the hepatocyte surface with high affinity in a saturable and competitive manner. (FIG. 22A) SPECT scans were performed 15 minutes after intravenous injection with 150 μCi I125-asprosin, boiled I125-asprosin, or free I125 in live, anesthetized mice previously injected with bismuth as a hepatic contrast agent. 3 representative images are shown in axial and coronal planes. (FIG. 22B) Liver asprosin accumulation was measured as liver photon intensity from mice in (FIG. 22A). (FIG. 22C) Tissue radioactivity (normalized to tissue weight) was measured using a γ-counter after sacrificing mice from (FIG. 22A), 45 minutes following injection (n=4 mice). (FIG. 22D) Sandwich ELISA was used to measure plasma His tag (recombinant asprosin contains an N-terminal His tag) in WT mice before injection and 15, 30, 60 and 120 minutes after injection with 30 μg recombinant asprosin. The time taken for peak signal to fall to half-maximal level is indicated by the arrow. […] Specific binding (shown in red) was calculated as the difference between the two curves. Data are represented as the mean±SEM.\nRecombinant asprosin was labeled with iodine-125 (I^125) and injected intravenously in mice, followed by single-photon emission computerized tomography (SPECT) scans to identify sites of accumulation. […]"}, "[3]": {"experiment": "Food intake, energy expenditure and body composition after asprosin gain-of-function", "assay_type": "in vivo, mice", "settings": "single subcutaneous dose, C57Bl/6 mice, vs GFP", "method": "Mouse food intake and energy expenditure—Food intake and energy expenditure were measured using the CLAMS System (Comprehensive Lab Animal Monitoring System, Columbus Instruments). Animals were acclimatized in the recording chambers for 48-72 hours, and measurements were taken subsequently for 24 hours during the light cycle and dark cycle. Mice received food and water ad libitum, or after an overnight fast where indicated. Oxygen consumption and food intake were recorded.\nAs previously described (Yan et al., 2016), male mice were anesthetized with inhaled isoflurane and stainless steel cannulas (Plastics One) were inserted into the lateral ventricles (0.34 mm caudal and 1 mm lateral from bregma; depth, 2.3 mm). […] These mice received 10 ng GFP ([…]) twice a day for 3 continuous days, and 10 ng asprosin (in […]) the last day. The BioDAQ food intake monitoring system (Research Diets, Inc) was used to monitor the food intake, and the food intake from the last GFP injection and asprosin were compared.\nMouse body composition—Body composition was analyzed using an ECHO-MRI system (Echo medical systems, Texas) or DEXA scans where indicated. Lean mass, fat mass, and overall body weight were calculated using the manufacturer-provided software."}, "[4]": {"experiment": "Asprosin plasma half-life (biotinylated asprosin sandwich ELISA)", "assay_type": "in vivo", "settings": "mammalian cell expressed asprosin, subcutaneous, mice, FIG. 50B", "method": "Asprosin Plasma Half-life—Asprosin expressed in HEK293 was labeled with biotin using a EZ-Link Sulfo-NHS-Biotin kit (Thermo Scientific), and excess biotin was removed using a Zeba Spin desalting column (Thermo Scientific). Final protein concentration was estimated using a BCA assay (Thermo Scientific). Approximately 30 ug/mouse of labeled asprosin was injected subcutaneously into C57Bl/6 mice. Blood was drawn before injection (baseline), and 30, 60, 120, and 360 minutes after injection, as well as after 24 and 48 hours. Biotinylated asprosin was detected using a custom designed sandwich ELISA. A plate was coated with the anti-asprosin monoclonal antibody (capture antibody), total plasma asprosin was bound, and only biotinylated asprosin was detected using Streptavidin-HRP."}}}
{"molecule": "O=C(Nc1cc(C(=O)Nc2ccc(S(=O)(=O)[O-])cc2S(=O)(=O)[O-])cc(C(=O)Nc2ccc(S(=O)(=O)[O-])cc2S(=O)(=O)[O-])c1)Nc1cc(C(=O)Nc2ccc(S(=O)(=O)[O-])cc2S(=O)(=O)[O-])cc(C(=O)Nc2ccc(S(=O)(=O)[O-])cc2S(=O)(=O)[O-])c1.[Na+].[Na+].[Na+].[Na+].[Na+].[Na+].[Na+].[Na+]", "note": "[NF449, reference compound]", "values": [{"measurement": "effect of pre-treating on asprosin-mediated AgRP neuron activation (firing frequency and resting membrane potential)", "setting": "AgRP neurons", "value": "completely prevented"}]}
{"molecule": "Nc1ncc2c(n1)CC(c1ccco1)CC2=O", "note": "(stereo not drawn) [NKY80, reference compound]", "values": [{"measurement": "effect of pre-treating on asprosin-mediated AgRP neuron activation (firing frequency and resting membrane potential)", "setting": "AgRP neurons", "value": "completely prevented"}]}
{"molecule": "Cc1ccc(C(=O)Nc2ccc(S(=O)(=O)O)c3cc(S(=O)(=O)O)cc(S(=O)(=O)O)c23)cc1NC(=O)c1cccc(NC(=O)Nc2cccc(C(=O)Nc3cc(C(=O)Nc4ccc(S(=O)(=O)O)c5cc(S(=O)(=O)O)cc(S(=O)(=O)O)c45)ccc3C)c2)c1", "note": "[suramin, reference compound]", "values": [{"measurement": "effect on asprosin-mediated hepatocyte PKA activation", "setting": "[1]", "value": "blocked"}, {"measurement": "effect of pre-treating on asprosin-mediated AgRP neuron activation (firing frequency and resting membrane potential)", "setting": "AgRP neurons", "value": "completely prevented"}]}
{"molecule": "I^125-Asprosin: Recombinant asprosin labeled with iodine-125", "values": [{"measurement": "site of accumulation (SPECT, liver photon intensity)", "setting": "[2]", "value": "trafficked primarily to the liver"}]}
{"molecule": "PTX: Gαi inhibitor [reference compound]", "values": [{"measurement": "effect of pre-treating on asprosin-mediated AgRP neuron activation (firing frequency and resting membrane potential)", "setting": "AgRP neurons", "value": "no impact"}]}
{"molecule": "[D-Lys3]-GHRP-6 [reference compound]", "values": [{"measurement": "effect of pre-treating on asprosin-mediated AgRP neuron activation (firing frequency and resting membrane potential)", "setting": "AgRP neurons", "value": "no impact"}]}
{"molecule": "mammalian-generated asprosin: Human asprosin with C-terminal 6x His tag expressed in Expi293 mammalian cells, glycosylated (protein) STNETDASNIEDQSETEANVSLASWDVEKTAIFAFNISHVSNKVRILELLPALTTLTNHNRYLIESGNEDGFFKINQKEGISYLHFTKKKPVAGTYSLQISSTPLYKKKELNQLEDKYDKDYLSGELGDNLKMKIQVLLHHHHHHH", "values": [{"measurement": "food intake over the next 24-hr", "setting": "[3]", "value": "greater food intake"}, {"measurement": "dose-dependency of AgRP neuron activation (firing frequency, membrane potential)", "setting": "AgRP neurons; 0.01-100 nM, intact slices", "value": "dose-dependent activation"}, {"measurement": "EC50 for AgRP neuron activation", "setting": "AgRP neurons; firing frequency and membrane potential", "value": "nanomolar to subnanomolar range"}, {"measurement": "plasma half-life", "setting": "[4]", "value": "~2.42", "unit": "h"}, {"measurement": "plasma half-life", "setting": "[4]; listed as Mammalian asprosin", "value": "approximately 145 minutes"}]}
